{"source": "patent US20100285127A1", "about": "“TASTE MASKED PHARMACEUTICAL COMPOSITIONS OF S-ALKYLISOTHIOURONIUM DERIVATIVES” (priority 2007, published 2010)", "origin": "cited, not measured here", "settings": "Zherebchenko 1968; Goloschapova 1981"}
{"substance": "S-ethylisothiouronium diethylphosphate [Difetur]", "values": [{"measurement": "radioprotective effects", "result": "radioprotective effects"}]}
